# Where “and” joins values, the source holds several entries; their conditions need not be identical. Equal values may be shown once.
# Key:
# Type in all cases: in vivo
# [1] = system: Corn seeds (field hybrid 7571); assay: Corn seed germination; conditions: 12 wt. % hydroxytyrosol solution, room temperature, 14 days; water control 27% (FIG. 1C), 33% (repeat, FIG. 1D)
# Procedure: Corn seeds (field hybrid 7571) were incubated at room temperature in a solution including 12 wt. % hydroxytyrosol for 14 days. As a control, corn seeds (field hybrid 7571) were incubated at room temperature in water for 14 days.
# Sorghum seeds (RT X 437) = assay: Sorghum seed germination; conditions: 12 wt. % hydroxytyrosol solution, room temperature, 14 days; water control 36% (FIG. 2C), 29% (repeat, FIG. 2D)
# Procedure: Sorghum seeds (RT X 437) were incubated at room temperature in a solution including 12 wt. % hydroxytyrosol for 14 days. As a control, sorghum seeds (RT X 437) were incubated at room temperature in water for 14 days.
# [2] = system: Rice seeds (Japanese cultivar, Taipei 309); assay: Rice seed germination; conditions: 12 wt. % hydroxytyrosol solution, 37° C., 14 days; water control 56%
# Procedure: Rice seeds (Japanese cultivar, Taipei 309) were incubated at 37° C. in a solution including 12 wt. % hydroxytyrosol for 14 days. As a control, rice seeds (Japanese cultivar, Taipei 309) were incubated at 37° C. in water for 14 days.
# Rice plants = assay: Rice growth rate (column length); conditions: 12 wt. % hydroxytyrosol
# Procedure: Rice plants were treated with 12 wt. % hydroxytyrosol over 28 days. As a control, rice plants were treated with water over 28 days. FIG. 4 depicts a line chart showing the column length of rice plants over 28 days. Table 1 provides the column length of rice plants treated with 12 wt. % hydroxytyrosol and water after 1, 14, and 28 days.
# [3] = system: low molecular weight proteins (sHSPs, LTPs, pathogenesis-related proteins, and LEA proteins); assay: Fold change in protein expression (SDS-PAGE, Western blotting, densitometry); conditions: 12% hydroxytyrosol, vs water control, FIG. 6
# Procedure: (§1) The effect of different hydroxytyrosol concentrations on crop stress resistance and protein production was examined. […] Protein quantification was conducted using SDS-PAGE and Western blotting for visualization, followed by densitometry analysis to measure fold increases in protein expression. Additionally, HPLC-DAD and mass spectrometry were utilized to confirm hydroxytyrosol stability and retention in plant tissue.
# HSP70 = assay: as above; conditions: 12% hydroxytyrosol, vs water control, FIG. 6
# Procedure: as §1
# other HSPs = assay: as above; conditions: 12% hydroxytyrosol, vs water control, FIG. 6
# Procedure: as §1
# Rubisco = assay: as above; conditions: 12% hydroxytyrosol, vs water control, FIG. 6
# Procedure: as §1
compound,measurement,setting,value
OCCc1ccc(O)c(O)c1 [hydroxytyrosol],corn seeds germinated,[1],75% and 69%
same,sorghum seeds germinated,Sorghum seeds (RT X 437),78% and 77%
same,rice seeds germinated,[2],74%
same,column length of rice plants,"Rice plants; 1 day of treatment, water control 22 cm",35 cm
same,column length of rice plants,"Rice plants; 14 days of treatment, water control 39 cm",82 cm
same,column length of rice plants,"Rice plants; 28 days of treatment, water control 60 cm",112 cm
same,increase in low molecular weight proteins (fold change in protein expression),[3],4.09 ×
same,increase in HSP70 (fold change in protein expression),HSP70,2.99 ×
same,increase in other HSPs (fold change in protein expression),other HSPs,3.10 ×
same,increase in Rubisco (fold change in protein expression),Rubisco,1.72 ×

# Reference: patent publication US20250275535A1, “OLIVE TREE BIOMASS EXTRACT” (Veos Pharmaceuticals, S.L., priority 2024, published 2025)
